Patent US6828350B1, “Modulators of cysteine protease” (Exegenics Inc., priority 1997, dated 2004)
“And” between values parts separate entries of the source, which are not always exact repeats. Identical values can stand only once. Like-named read-outs stand apart in the source and are kept apart here.

Legend:
HRV 14 = experiment: Antiviral assay, XTT method, HRV 14; format: cell-based
HRV 16 = experiment: Antiviral assay, XTT method, HRV 16; format: cell-based
Apopain (caspase-3) = target: T1, Apopain (caspase-3) (Homo sapiens, UniProt P42574); experiment: Apopain (Caspase-3) Regulation Assay (FluorAce Apopain Assay Kit); format: biochemical; settings: Apopain modulation: Inhibitor or Activator
T1 construct: purchased Bio-rad FluorAce Apopain Assay Kit (booklet 4100119)
T1 sequence (P42574 29-175 limits assumed): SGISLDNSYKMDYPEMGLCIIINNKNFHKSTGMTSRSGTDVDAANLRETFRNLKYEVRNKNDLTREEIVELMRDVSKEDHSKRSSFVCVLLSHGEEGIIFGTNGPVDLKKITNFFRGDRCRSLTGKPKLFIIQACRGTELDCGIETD
T1 sequence (P42574 176-277 limits assumed): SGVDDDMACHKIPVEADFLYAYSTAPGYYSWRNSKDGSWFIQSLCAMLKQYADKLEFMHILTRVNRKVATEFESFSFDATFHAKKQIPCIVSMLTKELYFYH
Protocol: VI: Apopain (Caspase-3) Regulation Assay
The FluorAce™ Apopain Assay Kit (Bio-rad) was employed in multiwell format. Compounds assayed were diluted 5-fold in distilled water (from stock solutions in ethanol or DMSO) and centrifuged (5′, 14K rpm). 10 μL of the supernatant was further diluted in wells containing 100 μL distilled water and 40 μL 6×Buffer (41.7 mM PIPES, pH 7.4, 8.3 mM EDTA, 0.42% CHAPS, 20.8 mM DTT). This process was carried out twice to yield duplicate wells for each compound. Control wells were prepared by addition of EtOH and DMSO (5-fold diluted in distilled water) into wells containing 6×Buffer and distilled water (40 μL and 100 μL, respectively), to form 8 wells with each solvent. Enzyme (stock solution 10-fold diluted in distilled water, see Bio-rad booklet 4100119) was added to one set of compound-containing cells and to 8 control wells (4 with ethanol and 4 with DMSO). The plate was preincubated for ˜80′ at 27°-28° C. Substrate (Z-DEVD-AFC, 490 μM, 40 μL) was then added to all wells. The plate was left at room temperature and fluorescence (360/40↑530/20↓) was measured at several time points (FL500 fluorimetric reader, Bio-tek instruments). Fluorescence at enzyme-containing wells was background-subtracted at each time point and initial rates were determined by linear regression (typically R^2>0.97). Percentage inhibition and activation was determined by relating the slope with compound to the control slope (with appropriate solvent). IC50 values are extrapolated.

HRV 1B = experiment: Antiviral assay, XTT method, HRV 1B; format: cell-based
[1] = Cytotoxicity by XTT assay (treated, mock-infected cells); settings: human, H1-HeLa cells (ATCC), mock-infected
Hl-Hela cells [2] = experiment: as above; settings: read-out: TC50; Format 1; concentration that retards cell growth by 50%, mock-infected Hl-Hela cells
Hl-Hela cells [3] = test system: Hl-Hela cells
HRV 1A = experiment: Antiviral assay, XTT method, HRV 1A; format: cell-based
3C protease = settings: background, in words; cited from earlier work
[4] = test system: elastase present in erythrocytes; settings: background, in words; cited from earlier work
[5] = HRV 14, Format 1, restores 50% of viral-caused decrease in cell viability

SMILES	IC50 (HRV 14; HRV 14, Format 2)	IC50 (HRV 16; HRV 16, Format 2)	Activity (Apopain (caspase-3))	IC50 (HRV 14; [5])	CC50 (Hl-Hela cells [2])	further results
CC(=O)c1c(O)cccc1OCC(N)=O (hydrate or solvate) [SA#121, 2-(2-acetyl-3-hydroxyphenoxy)-acetamide]						melting point: 151 to 152 °C
CCCCCC(=O)c1c(O)c(Cl)c(OC)c(Cl)c1O [SA#15]	5 ± 1 µM	1.4 ± 0.8 µM	Activator			
O=C(CCc1ccccc1)c1cc(Cl)ccc1O [SA#43]						IC50 (HRV 14): 30 ± 20 µM; IC50 (HRV 16): 340 ± 70 µM; IC50 (HRV 1B): 40 ± 10 µM
CC(=O)c1cccc(C#N)c1O [SA#51]			Inhibitor			
CC(=O)c1c(O)c(Cl)cc(Cl)c1O [SA#109]	590 ± 320 µM		Inhibitor			
CC(=O)c1c(O)cc(O)cc1O [SA#110]			Inhibitor	192 µM		IC50 (HRV 16; HRV 16, Format 1): 425 µM; CC50 [1]: 548 ± 27 µM
CCCCCC(=O)c1cc(Cl)c(O)c(Cl)c1O [SA#116]	50 ± 7 µM	61 ± 37 µM		13 µM	24 ± 6 µM	IC50 (HRV 16; HRV 16, Format 1): 21 µM
O=C(NCc1ccccc1)c1cc([N+](=O)[O-])cc([N+](=O)[O-])c1O [SA#120]	40 ± 33 µM	30 ± 8 µM		30 µM		CC50 (Hl-Hela cells [3]): 271 ± 22 µM
CC(=O)c1c(O)cccc1OCC(N)=O [SA#121, 2-(2-acetyl-3-hydroxyphenoxy)-acetamide]	120 ± 50 µM	420 ± 140 µM		189 µM		IC50 (HRV 1A; Format 1): 198 µM; CC50 [1]: 425 ± 8 µM
O=C(NCCc1ccccc1)c1cc([N+](=O)[O-])cc([N+](=O)[O-])c1O [SA#127]	16 ± 4 µM	15 ± 4 µM		23 µM		IC50 (HRV 1A; Format 2): 13 ± 3 µM; IC50 (HRV 1B; HRV 1B, Format 2): 11 ± 1 µM; CC50 (Hl-Hela cells [3]): 187 ± 18 µM
CCCCCCCCNC(=O)c1cc([N+](=O)[O-])cc([N+](=O)[O-])c1O [SA#128]	31 ± 6 µM	4 ± 3 µM		152 µM		CC50 (Hl-Hela cells [3]): 429 ± 42 µM
CCOC(=O)c1c(O)cc(O)c(C(C)=O)c1O [SA#132]				17 µM	29 ± 5 µM	IC50 (HRV 1A; Format 1): 13 µM; IC50 (HRV 1B; HRV 1B, Format 1): 24 µM
CCCCCC(=O)c1c(OC)cc(O)c(Cl)c1O [SA#134]	122 ± 14 µM	13 ± 6 µM		63 µM	48 ± 6 µM	IC50 (HRV 16; HRV 16, Format 1): 12 µM
C[C@H]1CC2=C(C(=O)c3c(O)cc(O)cc3C2=O)[C@H](O)O1 [Thysanone]						inhibition of the 3C protease (3C protease): inhibitor of the 3C protease; inhibition of elastase [4]: efficient inhibitor
COc1ccc(C(=O)c2ccccc2O)c(O)c1 [compound 1]	23 ± 20 µM	165 ± 134 µM		16 µM	50 ± 10 µM	
CC(=O)c1ccccc1O [compound 6]	210 ± 170 µM					
CC(=O)c1ccc(O)cc1O [compound 7]		810 ± 180 µM				
CC(=O)c1cc(O)ccc1O [compound 8]	230 ± 170 µM	35 ± 7 µM	Inhibitor			IC50 (HRV 1A; Format 2): 141 ± 25 µM; IC50 (HRV 1B; HRV 1B, Format 2): 33 ± 3 µM
CC(=O)c1c(O)cccc1O [compound 9]	110 ± 14 µM	200 ± 110 µM	Activator			
CC(=O)c1cc(Cl)ccc1O [compound 12]	150 µM and 290 µM	590 ± 300 µM			> 2500 µM	IC50 (HRV 16; HRV 16, Format 1): 137 µM; IC50 (HRV 1B; HRV 1B, Format 2): 305 ± 55 µM
COc1cc(O)c(C(C)=O)c(OC)c1 [compound 14]					780 ± 206 µM	IC50 (HRV 16; HRV 16, Format 1): 225 µM
CC(=O)c1cc(F)ccc1O [compound 27]		47 ± 8 µM	Inhibitor	444 µM		CC50 [1]: > 1250 µM
CC(=O)c1cc(Br)ccc1O [compound 28]	91 ± 62 µM	159 ± 44 µM		6.2 µM	1230 ± 610 µM	
CC(=O)c1cc(Cl)cc(Cl)c1O [compound 29]	6 ± 2 µM	6 ± 2 µM		4.8 µM	29 ± 8 µM	IC50 (HRV 1A; Format 2): 19 ± 8 µM; IC50 (HRV 1B; HRV 1B, Format 2): 8 ± 5 µM
CC(=O)c1cc(C)cc([N+](=O)[O-])c1O [compound 30]	31 ± 12 µM	29 ± 24 µM	Inhibitor	55 µM		CC50 [1]: 67 ± 8 µM
